Calls of active or inactive are those of the source. No cut-off for these calls is given here.
Assays:
[1] = Cytotoxicity against human SNU5 cells assessed as reduction in cell survival incubated for 3 days by cell titre-glo assay; details: SNU-5, 72 h
NCI-H1993 [2] = assay: Antitumor activity against human NCI-H1993 cells xenografted in ig dosed nude BALB/c mouse measured twice every week; assay type: functional, organism-based
[3] = target: RAC-alpha serine/threonine-protein kinase (Homo sapiens, UniProt P31749); details: Huh-7, 100 to 1000 nM
Description: Inhibition of AKT phosphorylation in human HuH7 cells at 100 to 1000 nM after 6 to 24 hrs by Western blot analysis

MKN-45 = assay: Antitumor activity against human MKN45 cells xenografted in ig dosed nude BALB/c mouse measured twice every week; assay type: functional, organism-based
Huh-7 = assay: Inhibition of ERK phosphorylation in human HuH7 cells at 100 to 1000 nM after 6 to 24 hrs by Western blot analysis; assay type: cell-based
[4] = target: Hepatocyte growth factor receptor (Homo sapiens, UniProt P08581); assay: Inhibition of c-Met (unknown origin) incubated for 1 hr by spectrophotometric analysis
[5] = Half life in Sprague-Dawley rat at 5 mg/kg; assay type: ADME, organism-based; details: in vivo
[6] = Apparent oral clearance in Sprague-Dawley rat at 5 mg/kg; assay type: ADME, organism-based; details: in vivo
[7] = Apparent volume of distribution during terminal phase in Sprague-Dawley rat at 5 mg/kg; assay type: ADME, organism-based; details: in vivo, read-out: Vz/F
[8] = Mean residence time in Sprague-Dawley rat at 5 mg/kg; assay type: ADME, organism-based; details: in vivo
[9] = AUC in Sprague-Dawley rat at 5 mg/kg; assay type: ADME, organism-based; details: in vivo
[10] = Cmax in Sprague-Dawley rat at 5 mg/kg; assay type: ADME, organism-based; design: dose 5 mg/kg; details: in vivo
[11] = Cytotoxicity against human HuH7 cells assessed as reduction in cell survival incubated for 3 days by cell titre-glo assay; assay type: functional, cell-based; details: Huh-7, 72 h
[12] = Cytotoxicity against human MHCC97L cells assessed as reduction in cell survival incubated for 3 days by cell titre-glo assay; assay type: functional, cell-based; details: 72 h
NCI-N87 = assay: Cytotoxicity against human NCI-N87 cells assessed as reduction in cell survival incubated for 3 days by cell titre-glo assay; assay type: functional, cell-based; details: NCI-N87, 72 h
A549 = assay: Cytotoxicity against human A549 cells assessed as reduction in cell survival incubated for 3 days by cell titre-glo assay; assay type: functional, cell-based; details: A549, 72 h
[13] = Cytotoxicity against human HCCLM3 cells assessed as reduction in cell survival incubated for 3 days by cell titre-glo assay; assay type: functional, cell-based; details: HCCLM3, 72 h
NCI-H1993 [14] = assay: Antitumor activity against human NCI-H1993 cells xenografted in nude BALB/c mouse assessed as inhibitory rate at 10 mg/kg, ig measured twice every week; assay type: functional
NCI-H1993 [15] = assay: Cytotoxicity against human NCI-H1993 cells assessed as reduction in cell survival incubated for 3 days by cell titre-glo assay; assay type: functional, cell-based; details: NCI-H1993, 72 h
NCI-H1975 = assay: Cytotoxicity against human NCI-H1975 cells assessed as reduction in cell survival incubated for 3 days by cell titre-glo assay; assay type: functional, cell-based; details: NCI-H1975, 72 h
[16] = Cytotoxicity against human MHCC97H cells assessed as reduction in cell survival incubated for 3 days by cell titre-glo assay; assay type: functional, cell-based; details: 72 h
[17] = Cytotoxicity against human MKN45 cells assessed as reduction in cell survival incubated for 3 days by cell titre-glo assay; assay type: functional, cell-based; details: MKN-45, 72 h
[18] = Antitumor activity against human MKN45 cells xenografted in nude BALB/c mouse assessed as inhibitory rate at 10 mg/kg, ig measured twice every week; assay type: functional; details: MKN-45, po, read-out: TGI
[19] = Antitumor activity against human MKN45 cells xenografted in nude BALB/c mouse assessed as inhibitory rate at 60 mg/kg, ig measured twice every week; assay type: functional; details: MKN-45, po, read-out: TGI
[20] = Acute toxicity in ig dosed nude BALB/c mouse administered as qd measured for 14 days; assay type: organism-based; details: in vivo, po
NCI-H1993 [21] = assay: Antitumor activity against human NCI-H1993 cells xenografted in nude BALB/c mouse assessed as inhibitory rate at 60 mg/kg, ig measured twice every week; assay type: functional; details: NCI-H1993, po, read-out: TGI
NCI-H1993 [22] = assay: Antitumor activity against human NCI-H1993 cells xenografted in nude BALB/c mouse assessed as inhibitory rate at 30 mg/kg, ig measured twice every week; assay type: functional; details: NCI-H1993, po, read-out: TGI
[23] = Antitumor activity against human MKN45 cells xenografted in nude BALB/c mouse assessed as inhibitory rate at 30 mg/kg, ig measured twice every week; assay type: functional; details: MKN-45, po, read-out: TGI
Mus musculus [24] = assay: Acute toxicity in nude BALB/c mouse assessed as clinical pathologies at 300 to 600 mg/kg, ig qd after 28 days; assay type: organism-based; details: in vivo, po, 672 h
Mus musculus [25] = assay: Toxicity in nude BALB/c mouse assessed as clinical pathologies at 15 to 225 mg/kg, ig qd for treated for 28 days followed by rehabiliation for 28 days measured on day 56 relative to vehicle control; assay type: organism-based; details: in vivo, po, 672 h
[26] = Toxicity in ig dosed nude BALB/c mouse administered as qd treated for 28 days followed by rehabilitation for 28 days; assay type: organism-based; details: in vivo, po
Mus musculus [27] = assay: Toxicity in nude BALB/c mouse assessed as effect on body weight at 15 to 225 mg/kg, ig qd for treated for 28 days followed by rehabiliation for 28 days measured during compound dosing and rehabilitation period relative to vehicle control; assay type: organism-based; details: in vivo, po, 672 h

Compound `COCCN1C(=O)COc2c1cnc1ccc(Sc3nnc4ccc(-c5cnn(C)c5)cn34)cc21` has an IC50 [1] of 19.1 nM.
In the case of `CN1C(=O)COc2c1cnc1ccc(Sc3nnc4c(F)cc(-c5cnn(C)c5)cn34)cc21`, the TGI (NCI-H1993 [2]) is reported as “Dose-dependent effect”, the inhibition [3] is reported as “inactive” and the TGI (MKN-45) is reported as “Dose-dependent effect”. The inhibition (Huh-7) was “inactive”.
`Cn1cc(-c2cc(F)c3nnc(Sc4ccc5ncc6c(c5c4)OCCN6C(=O)C4CC4)n3c2)cn1` showed an IC50 [1] of 12.3 nM.
`Cn1cc(-c2cc(F)c3nnc(Sc4ccc5ncc6c(c5c4)OCC(=O)N6)n3c2)cn1` gave an IC50 [1] of 17.8 nM.
For `CN1C(=O)COc2c1cnc1ccc(Sc3nnc4c(OC(F)F)cc(-c5cnn(C)c5)cn34)cc21`, the IC50 [1] was over 1000 nM and the IC50 [4] was over 1000 nM.
`Cn1cc(-c2ccc3nnc(C(F)(F)c4ccc5ncccc5c4)n3n2)cn1` [JNJ-38877605] showed a half-life [5] of 2.97 h, a CL/F [6] of 5.81 mL/min/kg and a Vd/F [7] of 1.48 L/kg. It also gave an MRT [8] of 4.9 h, an AUC [9] of 17300 ng·h/mL and a Cmax [10] of 2370 ng/mL.
`COCCN1C(=O)COc2c1cnc1ccc(Sc3nnc4c(F)cc(-c5cnn(C)c5)cn34)cc21` gave an IC50 [1] of 4.5 nM.
With `Cn1cc(-c2cc(F)c3nnc(Sc4ccc5ncc6c(c5c4)OC[C@H]4CCCN64)n3c2)cn1` the IC50 [1] was 29.2 nM.
`CN1C(=O)COc2c1cnc1ccc(Sc3nnc4ccc(-c5cnn(C)c5)cn34)cc21` showed an IC50 [1] of 3 nM.
In the case of `Cn1cc(-c2ccc3nnc(Sc4ccc5ncc6c(c5c4)OCC(=O)N6)n3c2)cn1`, the IC50 [1] is reported as 85.8 nM.
With `Cn1cc(-c2ccc3nnc(Sc4ccc5ncccc5c4)n3n2)cn1` [SGX-523] the IC50 [11] was over 10000 nM, the IC50 [12] was 18 nM and the IC50 [1] was 3.9 nM. It also gave an IC50 (NCI-N87) of over 10000 nM, an IC50 (A549) of over 10000 nM and an IC50 [13] of 24 nM. The TGI (NCI-H1993 [14]) was “inactive”, the IC50 (NCI-H1993 [15]) was 25 nM and the IC50 (NCI-H1975) was over 10000 nM. The IC50 [16] was 11 nM, the IC50 [17] was 15 nM and the inhibition in vivo at 10 mg/kg [18] was 11.2%.
For `Cn1cc(-c2cc(F)c3nnc(Sc4ccc5ncc6c(c5c4)OC[C@@H]4CCCN64)n3c2)cn1`, the IC50 [1] was 327 nM.
`CN1C(=O)COc2c1cnc1ccc(Sc3nnc4c(F)cc(-c5cnn(C)c5)cn34)cc21.CS(=O)(=O)O` showed an inhibition in vivo at 60 mg/kg [19] of 61.4%, an NOAEL at 336 h [20] of 600 mg/kg/day and an inhibition in vivo at 60 mg/kg (NCI-H1993 [21]) of 24.9%. The inhibition in vivo at 30 mg/kg (NCI-H1993 [22]) was 19.5%, the inhibition in vivo at 30 mg/kg [23] was 34.2% and the Activity (Mus musculus [24]) was “Non-toxic”. For the same compound, the CL/F [6] was 0.68 mL/min/kg, the Activity (Mus musculus [25]) was “Non-toxic” and the inhibition in vivo at 10 mg/kg (NCI-H1993 [14]; NCI-H1993, po, read-out: TGI) was 24.4%. The NOAEL at 672 h [26] was 225 mg/kg/day, the Activity (Mus musculus [27]) was “Non-toxic” and the inhibition in vivo at 10 mg/kg [18] was 29.5%.

— ChEMBL document CHEMBL3817824, “Synthesis and biological evaluation of new [1,2,4]triazolo[4,3-a]pyridine derivatives as potential c-Met inhibitors” (Bioorg Med Chem, 2016)
